For the test, the system named is Aedes aegypti. Nature of the test: Arm in Cage testing on human subjects (modified WHO - Nigel Hill protocol), dose response. Format: in vivo. Particulars: individual component, LDP Line dose response curve. Here is the method:
A Modified WHO-[…] protocol was used for Dose Response curve generation. Three concurrent repetitions were conducted with 4 subjects (2 male, 2 female). Approximately 60 non blood-fed, female Aedes aegypti mosquitoes were placed in a 12''×12''×12'' (28316.85 cm^3) plexi and screen cage. […] Arms were inserted into the first cage for 30 seconds, with number of landings (with intent to bite) recorded at the end of the time interval. The same procedure was used for the 2nd and 3rd cage in succession. Control arm was inserted first, followed by the opposite arm treated with ethanol only (as a treatment control). The 'treatment arm' is then treated with dose 1 and inserted, then dose 2, dose 3, and so on. After complete protection was achieved, control arm was reinserted to verify continued activity. Percent repellency was calculated by utilizing the formula [{(C-T)/C}*100]. Where C=the number of mosquitoes landing with intent to bite on the ethanol only treated arm, and T=the number of mosquitoes landing with intent to bite on the 'repellent' treated arm. LDP Line® software (Bakr, E 2007) was used to determine ED50 (effective dose to repel 50%) and compare materials. […] Significance was determined by the use of 95% confidence intervals. […]

The values that follow come from patent US11849727B2, “Synergistic formulations for control and repellency of biting arthropods” (Bedoukian Research, Inc., priority 2013, dated 2023).

The structures appear in SMILES notation.

Turning to `CCN(CC)C(=O)c1cccc(C)c1` [DEET, N,N-Diethyl-m-toluamide], the “percent dose required to generate an ED25 (25% repellency)” value is recorded as 0.035%.
